Legend:
Format in all cases: physicochemical
[1] = Stability of commercial NR product under hydrolytic conditions in deionized water, followed by NMR
Description: Additionally, to establish the stability of the commercial NR product (Niagen® purchased from ChromaDex) under hydrolytic conditions, it was dissolved in deionized water as described herein and the mixture was analyzed every 3 hours using ^1H- and ^31P-NMR.

[2] = One-stage hydrolysis of NAD^+ with ZrCl4 and calcium L-ascorbate in water at 80° C. (Example 2), concentrations over time; conditions: for Relative Concentration: Example 2, ZrCl4 + calcium L-ascorbate, 80° C.
Description: NMR spectra were recorded with 400 MHz Bruker spectrometer. Reversed phase HPLC column of RP-18 type (Chromolith performance RP18e (100-4.6 mm) UM8 086/001, Merck KGaA) using deionized HPLC-grade solvents in the following composition: 1% acetonitrile, 99% water. Flow rate was 0.1 mL/min, detection performed with UV detector at 260 nm. Mass Spectrometry (MS), 6200 series TOF/6500 series Q-TOF B.05.01 (B5125.1).
In a 250-ml flask, a mixture of NAD^+ (0.33 gr), ZrCl4 (0.58 gr) and 1.80 gr of calcium L-ascorbate in 100 ml of deionized water was heated to 80° C. for 2 days. Over this time period, full conversion of the NAD^+ was observed by HPLC. Decomposition of the desired NR product was also observed under these conditions, but to a lower extent in comparison with the process of Example 1. HR-MS spectrum of the product is MW of 255.10. The extent of the decomposition of the desired NR was determined by comparing the abundance of the desired peak to the abundance of the internal standard.

[3] = Hydrolysis of NAD^+ with phosphate binding agent (calcium L-ascorbate) alone in water at 80° C. (Example 3), concentrations over time; conditions: for Relative Concentration: Example 3, calcium L-ascorbate alone, 80° C.
Description: In a 250-ml flask, a mixture of NAD^+ (0.34 gr) and 1.8 gr of calcium L-ascorbate in 100 ml of deionized water was heated to 80° C. for 4 days. The mixture was analyzed every 3 hours using HPLC and ^31P-NMR.
The rate of the tertiary hydrolysis (decomposition of the NR) is slower. Under these conditions, the concentration of the NR remains essentially stable (˜10% decline) over 24 hours (steady-state). The concentration was determined by comparing the abundance of the desired peak to the abundance of the internal standard MS and ^1H- and ^31P-NMR (intensity of the signal). After this time the concentration of the NR decreased and the product was no longer present.

Compound	Relative Concentration ([2]; time 0 hours)	Relative Concentration ([2]; time 0.5 hours)	Relative Concentration ([2]; time 6 hours)	Relative Concentration ([2]; time 16 hours)	Relative Concentration ([2]; time 24 hours)	Relative Concentration ([3]; time 0 hours)	Relative Concentration ([3]; time 0.5 hours)	Relative Concentration ([3]; time 6 hours)	Relative Concentration ([3]; time 16 hours)	Relative Concentration ([3]; time 24 hours)	Relative Concentration ([3]; time 36 hours)	Relative Concentration ([3]; time 48 hours)	further results
NC(=O)c1ccc[n+]([C@@H]2O[C@H](CO)[C@@H](O)[C@H]2O)c1 [NR (Niagen ®), Nicotinamide riboside]													NR peak at 6.15 ppm in 1H-NMR versus DMF internal standard ([1]; after 24 hours): NR has degraded; Relative Concentration ([1]; time 0.5 hours): 1; Relative Concentration ([1]; time 3 hours): 0.62; Relative Concentration ([1]; time 6 hours): 0.48; Relative Concentration ([1]; time 24 hours): 0.02; Relative Concentration ([1]; time 48 hours): 0
NC(=O)c1ccc[n+]([C@@H]2O[C@H](CO)[C@@H](O)[C@H]2O)c1 [NR, 1-(β-D-Ribofuranosyl)-nicotinamide]	0	0.05	0.06	0.02	0	0	0.06	0.11	0.09	0.08	0.01	0	stability of the NR concentrations ([2]; NR-containing aqueous solution, ZrCl4 with phosphate-binding agent added concurrently): about 6 hours; decline of NR concentration ([3]; over 24 hours (steady-state), Example 3): ~10%; time the concentration of the product remains stable (decline of no more than 10%) ([3]; solution from degrading NAD^+ with phosphate-binding agent alone, absence of ZrCl4): at least 24 hours
NC(=O)c1cccnc1 [Nicotinamide, nicotinamide]	0	0.1	0.19	0.32	0.48	0	0.1	0.16	0.32	0.48	0.41	0.41	
NC(=O)C1=CN([C@@H]2O[C@H](COP(=O)(O)OP(=O)(O)OC[C@H]3O[C@@H](n4cnc5c(N)ncnc54)[C@H](O)[C@@H]3O)[C@@H](O)[C@H]2O)C=CC1 [NAD^+, β-nicotinamide adenine dinucleotide]	1	0.66	0.32	0.05	0	1	0.86	0.62	0.55	0.38	0.22	0.2	
